The structures appear in SMILES notation.

One test has as its system rat's sciatic nerve. Nature of the test: Local anesthetic effect after injection near the rat sciatic nerve (von Frey stimulation; Postural Extensor Thrust for motor function). The class given is in vivo. To be noted: SD rats, 0.5 mL near sciatic nerve; Postural Extensor Thrust; compounds 20 mmol/mL, levobupivacaine 0.75%, lidocaine 2%. As to the method: Dosage: for lidocaine group, lidocaine was formulated with distilled water into a solution at the concentration of 2% (74 mmol/L); for levobupivacaine group, levobupivacaine was formulated with distilled water into a solution at the concentration of 0.75% (22 mmol/L); the compound of the present invention was formulated with distilled water into a solution at the concentration of […].
The injection volume for each rat was 0.5 mL, which was guided by a nerve locator and injected near the rat's sciatic nerve. Using von Frey stimulator, the rats were stimulated the soles of the feet in the injected side, to observe the effect of local anesthesia. Meanwhile, Postural Extensor Thrust (PET) was used to evaluate the motor function of the rat: the rat was lifted vertically and the hindlimb in the injected side pedaled on the platform of the electronic balance. […] When the limb was completely paralyzed, the reading was the limb's own weight, about 20 g. If the measured value was more than half of the difference between the baseline and the limb weight, the motor function was regarded as recovery, and if the value was […], the motor function was regarded as loss.
For the compound `CCCCC[N+](CCCCCCN1CCC1C(=O)Nc1c(C)cccc1C)(CCSCC)CC(=O)Nc1c(C)cccc1C` (stereo not shown) [Example 63 product], the “Duration of motor block” value amounted to 14 h.

As to `CCCCCCC[N+](CCCCC)(CCOCCN1CCCCC1C(=O)Nc1c(C)cccc1C)CC(=O)Nc1c(C)cccc1C` (stereo not shown) [Example 76 product], the “Duration of motor block” value is recorded as 14 h.

With `CCCCCCCC[N+](CCCCCC(=O)O)(CCCOCCCN1CCCCC1C(=O)Nc1c(C)cccc1C)CC(=O)Nc1c(C)cccc1C` (stereo not shown) [Example 39 product], the “Duration of motor block” value worked out at 19 h.

On to `CCCCC[N+](CCCCCO)(CCCCCCN1CCCCC1C(=O)Nc1c(C)cccc1C)CC(=O)Nc1c(C)cccc1C.[Br-]` (stereo not shown) [Example 12 product], for which the “Duration of motor block” value came out at 11 h.

In the case of `CCCCCC[N+](CCCCCC)(CCCN1CCCCC1C(=O)Nc1c(C)cccc1C)CC(=O)Nc1c(C)cccc1C` (stereo not shown) [Example 73 product], the “Duration of motor block” value was found to be 20 h.

Regarding `CCCCC[N+](CCCCO)(CCCCCCN1CCC1C(=O)Nc1c(C)cccc1C)CC(=O)Nc1c(C)cccc1C` (stereo not shown) [Example 64 product], the “Duration of motor block” value was 13 h.

As to `Cc1cccc(C)c1NC(=O)C[N+](CCCCO)(CCCCO)CCCCCCCCN1CCCCCCC1C(=O)Nc1c(C)cccc1C` (stereo not shown) [Example 44 product], the “Duration of motor block” value worked out at 16 h.

As to `CCCCC[N+](CO)(CCCCCCN1CCCCC1C(=O)Nc1c(C)cccc1C)CC(=O)Nc1c(C)cccc1C.[Br-]` (stereo not shown) [Example 15 product], the “Duration of motor block” value worked out at 16 h.

Take `CCCCCCCCCC[N+](CCCCCCCC)(CCCCCCCCCCCN1CCCCC1C(=O)Nc1c(C)cc(C)cc1C)CC(=O)Nc1c(C)cccc1C` (stereo not shown) [Example 24 product]: the “Duration of motor block” value is listed as 11 h.

As for `CCCCC[N+](CCCS)(CCCCCCCCN1CCCCCCC1C(=O)Nc1c(C)cccc1C)CC(=O)Nc1c(C)cccc1C` (stereo not shown) [Example 57 product], the “Duration of motor block” value is on record as 13 h.

Consider `CCSCC[N+](CCO)(CCCCCCN1CCCC1C(=O)Nc1c(C)cccc1C)CC(=O)Nc1c(C)cccc1C` (stereo not shown) [Example 62 product], for which the “Duration of motor block” value was determined as 21 h.

The test is the same for the next values; noted with them: SD rats, 0.5 mL near sciatic nerve; compounds 20 mmol/mL, levobupivacaine 0.75% (22 mmol/L), lidocaine 2% (74 mmol/L).
In the case of `CCCCC[N+](CCCCCCN1CCC1C(=O)Nc1c(C)cccc1C)(CCSCC)CC(=O)Nc1c(C)cccc1C` (stereo not shown) [Example 63 product], the “Local anesthesia onset time” value is listed as 3 min.

`CCCCCCC[N+](CCCCC)(CCOCCN1CCCCC1C(=O)Nc1c(C)cccc1C)CC(=O)Nc1c(C)cccc1C` (stereo not shown) [Example 76 product]: the “Local anesthesia onset time” value stood at 3 min.

For the compound `CCCCCCCC[N+](CCCCCC(=O)O)(CCCOCCCN1CCCCC1C(=O)Nc1c(C)cccc1C)CC(=O)Nc1c(C)cccc1C` (stereo not shown) [Example 39 product], the “Local anesthesia onset time” value was determined as 3 min.

As for `CCCCC[N+](CCCCCO)(CCCCCCN1CCCCC1C(=O)Nc1c(C)cccc1C)CC(=O)Nc1c(C)cccc1C.[Br-]` (stereo not shown) [Example 12 product], the “Local anesthesia onset time” value turned out to be 5 min.

For `CCCCCC[N+](CCCCCC)(CCCN1CCCCC1C(=O)Nc1c(C)cccc1C)CC(=O)Nc1c(C)cccc1C` (stereo not shown) [Example 73 product], the “Local anesthesia onset time” value is recorded as 3 min.

Regarding `CCCCC[N+](CCCCO)(CCCCCCN1CCC1C(=O)Nc1c(C)cccc1C)CC(=O)Nc1c(C)cccc1C` (stereo not shown) [Example 64 product], the “Local anesthesia onset time” value is given as 3 min.

As to `Cc1cccc(C)c1NC(=O)C[N+](CCCCO)(CCCCO)CCCCCCCCN1CCCCCCC1C(=O)Nc1c(C)cccc1C` (stereo not shown) [Example 44 product], the “Local anesthesia onset time” value stood at 5 min.

In the case of `CCCCC[N+](CO)(CCCCCCN1CCCCC1C(=O)Nc1c(C)cccc1C)CC(=O)Nc1c(C)cccc1C.[Br-]` (stereo not shown) [Example 15 product], the “Local anesthesia onset time” value is 5 min.

With `CCCCCCCCCC[N+](CCCCCCCC)(CCCCCCCCCCCN1CCCCC1C(=O)Nc1c(C)cc(C)cc1C)CC(=O)Nc1c(C)cccc1C` (stereo not shown) [Example 24 product], the “Local anesthesia onset time” value was 4 min.

On to `CCCCC[N+](CCCS)(CCCCCCCCN1CCCCCCC1C(=O)Nc1c(C)cccc1C)CC(=O)Nc1c(C)cccc1C` (stereo not shown) [Example 57 product], for which the “Local anesthesia onset time” value came to 5 min.

Consider `CCSCC[N+](CCO)(CCCCCCN1CCCC1C(=O)Nc1c(C)cccc1C)CC(=O)Nc1c(C)cccc1C` (stereo not shown) [Example 62 product], for which the “Local anesthesia onset time” value worked out at 5 min.

The same test, now with this note: SD rats, 0.5 mL near sciatic nerve; von Frey; compounds 20 mmol/mL, levobupivacaine 0.75%, lidocaine 2%.
Consider `CCCCC[N+](CCCCCCN1CCC1C(=O)Nc1c(C)cccc1C)(CCSCC)CC(=O)Nc1c(C)cccc1C` (stereo not shown) [Example 63 product], for which the “Duration of sensory block” value is 64 h.

As for `CCCCCCC[N+](CCCCC)(CCOCCN1CCCCC1C(=O)Nc1c(C)cccc1C)CC(=O)Nc1c(C)cccc1C` (stereo not shown) [Example 76 product], the “Duration of sensory block” value came out at 59 h.

Consider `CCCCCCCC[N+](CCCCCC(=O)O)(CCCOCCCN1CCCCC1C(=O)Nc1c(C)cccc1C)CC(=O)Nc1c(C)cccc1C` (stereo not shown) [Example 39 product], for which the “Duration of sensory block” value is reported as 61 h.

`CCCCC[N+](CCCCCO)(CCCCCCN1CCCCC1C(=O)Nc1c(C)cccc1C)CC(=O)Nc1c(C)cccc1C.[Br-]` (stereo not shown) [Example 12 product]: the “Duration of sensory block” value is 42 h.

Consider `CCCCCC[N+](CCCCCC)(CCCN1CCCCC1C(=O)Nc1c(C)cccc1C)CC(=O)Nc1c(C)cccc1C` (stereo not shown) [Example 73 product], for which the “Duration of sensory block” value was determined as 51 h.

In the case of `CCCCC[N+](CCCCO)(CCCCCCN1CCC1C(=O)Nc1c(C)cccc1C)CC(=O)Nc1c(C)cccc1C` (stereo not shown) [Example 64 product], the “Duration of sensory block” value was found to be 67 h.

Consider `Cc1cccc(C)c1NC(=O)C[N+](CCCCO)(CCCCO)CCCCCCCCN1CCCCCCC1C(=O)Nc1c(C)cccc1C` (stereo not shown) [Example 44 product], for which the “Duration of sensory block” value is 69 h.

As to `CCCCC[N+](CO)(CCCCCCN1CCCCC1C(=O)Nc1c(C)cccc1C)CC(=O)Nc1c(C)cccc1C.[Br-]` (stereo not shown) [Example 15 product], the “Duration of sensory block” value came out at 44 h.

For `CCCCCCCCCC[N+](CCCCCCCC)(CCCCCCCCCCCN1CCCCC1C(=O)Nc1c(C)cc(C)cc1C)CC(=O)Nc1c(C)cccc1C` (stereo not shown) [Example 24 product], the “Duration of sensory block” value is recorded as 54 h.

For `CCCCC[N+](CCCS)(CCCCCCCCN1CCCCCCC1C(=O)Nc1c(C)cccc1C)CC(=O)Nc1c(C)cccc1C` (stereo not shown) [Example 57 product], the “Duration of sensory block” value is listed as 69 h.

`CCSCC[N+](CCO)(CCCCCCN1CCCC1C(=O)Nc1c(C)cccc1C)CC(=O)Nc1c(C)cccc1C` (stereo not shown) [Example 62 product]: the “Duration of sensory block” value worked out at 51 h.

For the next test, the system named is back skin of SD rat. Nature of the test: Local anesthetic effect by subcutaneous infiltration (back skin, Von Frey fiber 100 g). Type of test: in vivo. The settings on record: SD rats, 0.5 mL subcutaneous in saline; compounds 6 mmol/L, controls 0.75% (22 mmol/L) and 2% (74 mmol/L). As to the method: After the back of SD rat weighing 250-300 g (half female and half male) was shaved and disinfected, a circle with a diameter of about 1.5 cm was drawn on the side of the exposed back, and the circle is divided into 6 equal parts. […] Among the Von Frey fiber yarns, the one with a strength of 100 g was bound to the needle for local skin stimulation. One minute After the drug was injected, the above method was used to stimulate in 6 divisions. […] If back skin contraction was observed, the local anesthetic effect was considered as loss. […] Each compound was tested with 10 rats.
On to `CCCCC[N+](CCCCCCN1CCC1C(=O)Nc1c(C)cccc1C)(CCSCC)CC(=O)Nc1c(C)cccc1C` (stereo not shown) [Example 63 product], for which the “Duration of local anesthesia (median)” value was 79 h and the “Local anesthesia onset time (median)” value is recorded as 1 min.

For `CCCCCCC[N+](CCCCC)(CCOCCN1CCCCC1C(=O)Nc1c(C)cccc1C)CC(=O)Nc1c(C)cccc1C` (stereo not shown) [Example 76 product], the “Duration of local anesthesia (median)” value was 64 h and the “Local anesthesia onset time (median)” value stood at 2 min.

With `CCCCCCCC[N+](CCCCCC(=O)O)(CCCOCCCN1CCCCC1C(=O)Nc1c(C)cccc1C)CC(=O)Nc1c(C)cccc1C` (stereo not shown) [Example 39 product], the “Duration of local anesthesia (median)” value was found to be 89 h and the “Local anesthesia onset time (median)” value came to 2 min.

In the case of `CCCCC[N+](CCCCCO)(CCCCCCN1CCCCC1C(=O)Nc1c(C)cccc1C)CC(=O)Nc1c(C)cccc1C.[Br-]` (stereo not shown) [Example 12 product], the “Duration of local anesthesia (median)” value stood at 66 h and the “Local anesthesia onset time (median)” value is 3 min.

On to `CCCCCC[N+](CCCCCC)(CCCN1CCCCC1C(=O)Nc1c(C)cccc1C)CC(=O)Nc1c(C)cccc1C` (stereo not shown) [Example 73 product], for which the “Duration of local anesthesia (median)” value turned out to be 59 h and the “Local anesthesia onset time (median)” value came to 2 min.

`CCCCC[N+](CCCCO)(CCCCCCN1CCC1C(=O)Nc1c(C)cccc1C)CC(=O)Nc1c(C)cccc1C` (stereo not shown) [Example 64 product]: the “Duration of local anesthesia (median)” value was found to be 69 h and the “Local anesthesia onset time (median)” value is 1 min.

With `Cc1cccc(C)c1NC(=O)C[N+](CCCCO)(CCCCO)CCCCCCCCN1CCCCCCC1C(=O)Nc1c(C)cccc1C` (stereo not shown) [Example 44 product], the “Duration of local anesthesia (median)” value is recorded as 51 h and the “Local anesthesia onset time (median)” value is recorded as 2 min.

Take `CCCCC[N+](CO)(CCCCCCN1CCCCC1C(=O)Nc1c(C)cccc1C)CC(=O)Nc1c(C)cccc1C.[Br-]` (stereo not shown) [Example 15 product]: the “Duration of local anesthesia (median)” value is 73 h and the “Local anesthesia onset time (median)” value was 4 min.

For the compound `CCCCCCCCCC[N+](CCCCCCCC)(CCCCCCCCCCCN1CCCCC1C(=O)Nc1c(C)cc(C)cc1C)CC(=O)Nc1c(C)cccc1C` (stereo not shown) [Example 24 product], the “Duration of local anesthesia (median)” value worked out at 89 h and the “Local anesthesia onset time (median)” value was 2 min.

Turning to `CCCCC[N+](CCCS)(CCCCCCCCN1CCCCCCC1C(=O)Nc1c(C)cccc1C)CC(=O)Nc1c(C)cccc1C` (stereo not shown) [Example 57 product], the “Duration of local anesthesia (median)” value was found to be 85 h and the “Local anesthesia onset time (median)” value worked out at 1 min.

In the case of `CCSCC[N+](CCO)(CCCCCCN1CCCC1C(=O)Nc1c(C)cccc1C)CC(=O)Nc1c(C)cccc1C` (stereo not shown) [Example 62 product], the “Duration of local anesthesia (median)” value stood at 88 h and the “Local anesthesia onset time (median)” value turned out to be 1 min.

The values above are taken from patent US20220135526A1, “QUATERNARY AMMONIUM SALT COMPOUND, PREPARATION METHOD THEREFOR AND USE THEREOF” (WEST CHINA HOSPITAL, SICHUAN UNIVERSITY, priority 2019, published 2022).
